Legend:
Assay type in all cases: biochemical
Trk A = Trk A (Homo sapiens, UniProt P04629); assay: HotSpot kinase assay against Trk A; conditions: HotSpot 33P assay, ATP 10 μM-30 μM
Method: (§1) Kinase assays were performed using test compounds against a panel of Trk kinases: Trk A; Trk B; and Trk C. Each compound was tested at a concentration of 0.1 μM in single duplicate mode against the three kinases. Compounds were prepared as 10 mM stock solutions in DMSO prior to use in the assay. The control compound, staurosporine, was tested at 10 concentrations with three-fold serial dilution starting at 20 μM. IC50 values and curve fits were obtained using Prism (GraphPad Software). IC50 values were determined for staurosporine for comparison.
(§2) The screening was performed using the “HotSpot” assay platform. The assay measures the conversion of a peptide substrate to ^33P-labelled phosphorylated product. Briefly, specific kinase/substrate pairs along with required cofactors were prepared in reaction buffer. Specifically, the substrate was prepared in reaction buffer (20 mM Hepes, pH 7.5; 10 mM MgCl2; 1 mM EGTA; 0.02% Brij35; 0.02 mg/mL BSA; 0.1 mM Na3VO4; 2 mM DTT; 1% DMSO), followed by delivery of any required cofactor to the resulting substrate solution. The corresponding kinase was delivered into the substrate solution and the reaction mixture was mixed gently. Compound was delivered into the reaction mixture, followed 15-20 min later by addition of a mixture of ATP (Sigma, St. Louis Mo.) and ^33P ATP (specific activity 0.01 μCi/μL final; Perkin Elmer, Waltham, Mass.) to a final concentration of 10 μM-30 μM to initiate the reaction. Reactions were carried out at RT for 120 min, followed by spotting of the reactions onto P81 ion exchange filter paper (Whatman #3698-915; Whatman Inc., Piscataway, N.J.). Unbound phosphate was removed by extensive washing of filters in 0.75% phosphoric acid. […] The percent of enzyme inhibition was calculated based on the percent of remaining kinase activity.

Trk B = Trk B (Homo sapiens, UniProt Q16620); assay: HotSpot kinase assay against Trk B; conditions: HotSpot 33P assay, ATP 10 μM-30 μM
Sequence of Trk B (Q16620 32-822): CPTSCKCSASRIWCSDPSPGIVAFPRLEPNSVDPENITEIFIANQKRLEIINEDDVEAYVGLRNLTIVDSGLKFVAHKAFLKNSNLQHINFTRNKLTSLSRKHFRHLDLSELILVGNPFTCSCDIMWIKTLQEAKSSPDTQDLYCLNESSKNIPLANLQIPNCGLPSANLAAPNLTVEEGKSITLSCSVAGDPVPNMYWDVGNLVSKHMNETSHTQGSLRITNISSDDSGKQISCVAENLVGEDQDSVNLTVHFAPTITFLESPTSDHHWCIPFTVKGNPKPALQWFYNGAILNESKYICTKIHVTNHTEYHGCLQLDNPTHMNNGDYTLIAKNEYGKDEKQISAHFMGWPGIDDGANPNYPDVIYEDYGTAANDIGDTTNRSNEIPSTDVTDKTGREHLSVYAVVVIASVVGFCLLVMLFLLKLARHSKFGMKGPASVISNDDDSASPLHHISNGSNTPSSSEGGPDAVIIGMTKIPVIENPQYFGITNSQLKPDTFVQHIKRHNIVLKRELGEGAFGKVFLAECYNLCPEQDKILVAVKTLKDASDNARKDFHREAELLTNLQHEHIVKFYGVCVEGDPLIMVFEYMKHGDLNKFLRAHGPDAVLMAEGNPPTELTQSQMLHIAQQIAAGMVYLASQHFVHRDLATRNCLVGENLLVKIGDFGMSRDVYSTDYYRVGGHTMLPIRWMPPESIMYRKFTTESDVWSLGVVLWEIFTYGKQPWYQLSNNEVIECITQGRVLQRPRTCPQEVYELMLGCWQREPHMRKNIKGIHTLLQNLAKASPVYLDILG
Method: as §1, §2

Trk C = Trk C (Homo sapiens, UniProt Q16288); assay: HotSpot kinase assay against Trk C; conditions: HotSpot 33P assay, ATP 10 μM-30 μM
Sequence of Trk C (Q16288 32-839): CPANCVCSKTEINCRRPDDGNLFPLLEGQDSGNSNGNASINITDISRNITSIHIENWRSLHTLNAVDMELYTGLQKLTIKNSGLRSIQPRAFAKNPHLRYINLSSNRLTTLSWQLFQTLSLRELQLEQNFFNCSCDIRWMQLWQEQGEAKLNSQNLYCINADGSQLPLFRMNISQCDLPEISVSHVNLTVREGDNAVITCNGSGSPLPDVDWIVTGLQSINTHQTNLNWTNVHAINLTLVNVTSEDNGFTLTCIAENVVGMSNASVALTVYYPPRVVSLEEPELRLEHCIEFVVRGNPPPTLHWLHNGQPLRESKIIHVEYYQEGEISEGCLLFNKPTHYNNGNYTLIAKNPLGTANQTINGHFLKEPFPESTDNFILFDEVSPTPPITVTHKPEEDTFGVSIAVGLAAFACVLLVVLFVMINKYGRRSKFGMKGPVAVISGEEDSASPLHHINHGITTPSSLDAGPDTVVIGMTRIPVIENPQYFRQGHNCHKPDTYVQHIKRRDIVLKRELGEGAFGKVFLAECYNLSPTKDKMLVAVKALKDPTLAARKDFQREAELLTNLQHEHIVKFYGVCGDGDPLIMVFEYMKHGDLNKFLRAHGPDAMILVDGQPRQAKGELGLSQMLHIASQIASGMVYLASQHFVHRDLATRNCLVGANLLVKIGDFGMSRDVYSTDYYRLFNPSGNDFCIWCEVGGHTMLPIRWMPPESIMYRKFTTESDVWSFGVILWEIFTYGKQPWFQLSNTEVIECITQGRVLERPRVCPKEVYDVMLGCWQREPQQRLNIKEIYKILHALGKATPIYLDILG
Method: as §1, §2

activated IGF-1R = biological target: T1, activated IGF-1R (Homo sapiens, UniProt P08069); assay: In vitro IGF-1R enzymatic assay (ADP-Glo); conditions: ATP 100 μM; for inhibition at 1 µM: compound 1 μM; for inhibition at 3 µM: compound 3 μM; for inhibition at 10 µM: compound 10 μM; for inhibition at 30 µM: compound 30 μM
T1 construct: purchased Millipore 14-802
T1 sequence (P08069 31-1367): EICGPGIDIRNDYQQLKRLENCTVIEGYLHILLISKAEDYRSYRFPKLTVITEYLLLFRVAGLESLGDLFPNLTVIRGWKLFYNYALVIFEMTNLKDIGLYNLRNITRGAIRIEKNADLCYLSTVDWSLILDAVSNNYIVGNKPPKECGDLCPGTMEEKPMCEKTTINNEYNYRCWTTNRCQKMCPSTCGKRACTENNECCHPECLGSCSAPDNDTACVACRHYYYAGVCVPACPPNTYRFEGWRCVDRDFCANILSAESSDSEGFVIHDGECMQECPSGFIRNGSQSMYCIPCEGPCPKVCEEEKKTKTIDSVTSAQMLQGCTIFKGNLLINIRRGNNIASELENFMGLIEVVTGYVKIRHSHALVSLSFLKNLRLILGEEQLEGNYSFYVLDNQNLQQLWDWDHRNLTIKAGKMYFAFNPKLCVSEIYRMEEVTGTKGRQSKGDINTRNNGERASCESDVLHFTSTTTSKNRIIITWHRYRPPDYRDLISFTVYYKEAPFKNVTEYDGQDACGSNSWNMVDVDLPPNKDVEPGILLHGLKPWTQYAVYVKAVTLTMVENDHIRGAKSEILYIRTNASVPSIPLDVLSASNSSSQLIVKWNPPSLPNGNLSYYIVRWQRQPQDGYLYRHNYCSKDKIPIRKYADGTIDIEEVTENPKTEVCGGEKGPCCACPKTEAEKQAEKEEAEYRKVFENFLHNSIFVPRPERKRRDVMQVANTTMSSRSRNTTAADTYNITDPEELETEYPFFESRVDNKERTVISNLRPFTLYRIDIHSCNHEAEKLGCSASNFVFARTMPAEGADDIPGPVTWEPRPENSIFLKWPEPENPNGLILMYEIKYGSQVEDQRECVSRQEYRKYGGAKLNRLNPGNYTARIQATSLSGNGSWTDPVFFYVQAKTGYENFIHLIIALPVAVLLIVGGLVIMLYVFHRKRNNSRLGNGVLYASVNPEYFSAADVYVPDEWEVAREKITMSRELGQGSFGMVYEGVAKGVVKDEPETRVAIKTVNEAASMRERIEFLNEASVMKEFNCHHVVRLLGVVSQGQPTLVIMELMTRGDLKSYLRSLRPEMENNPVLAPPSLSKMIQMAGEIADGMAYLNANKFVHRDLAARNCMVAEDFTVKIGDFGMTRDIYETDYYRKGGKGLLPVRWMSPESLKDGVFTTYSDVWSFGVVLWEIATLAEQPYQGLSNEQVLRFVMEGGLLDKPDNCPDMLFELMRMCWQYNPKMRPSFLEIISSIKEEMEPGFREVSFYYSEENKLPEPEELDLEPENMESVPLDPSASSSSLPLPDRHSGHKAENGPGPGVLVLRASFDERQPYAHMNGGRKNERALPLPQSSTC
Method: (§3) Inhibition of IGF-1R and IR kinases by compounds described herein were tested. The IC50 values were measured in vitro using an ADP-Glo kinase assay Kit (Promega). For the IGF-1R assay, active recombinant IGF-1R (Millipore #14-802) was used at 1 ng/reaction, the substrate IGF-1R tide (Millipore #12-527) was used at 125 μM and ATP was used at 100 μM. For the IR assay, active recombinant IR (Millipore #14-803) was used at 1 ng/reaction, the substrate Axl tide (Millipore #12-516) was used at 125 μM and ATP at 50 μM. Kinase reactions in both assays were conducted at 30° C. for 20 min with increasing concentrations of the test compounds.
(§4) The assay results as the percent inhibition of binding are presented in Tables B2 and B3 for IGF-1R and IR respectively.

activated IR = biological target: T2, activated IR (Homo sapiens, UniProt P06213); assay: In vitro IR enzymatic assay (ADP-Glo); conditions: ATP 50 μM; for inhibition at 1 µM: compound 1 μM; for inhibition at 3 µM: compound 3 μM; for inhibition at 30 µM: compound 30 μM
T2 construct: purchased Millipore 14-803
T2 sequence (P06213 28-1382): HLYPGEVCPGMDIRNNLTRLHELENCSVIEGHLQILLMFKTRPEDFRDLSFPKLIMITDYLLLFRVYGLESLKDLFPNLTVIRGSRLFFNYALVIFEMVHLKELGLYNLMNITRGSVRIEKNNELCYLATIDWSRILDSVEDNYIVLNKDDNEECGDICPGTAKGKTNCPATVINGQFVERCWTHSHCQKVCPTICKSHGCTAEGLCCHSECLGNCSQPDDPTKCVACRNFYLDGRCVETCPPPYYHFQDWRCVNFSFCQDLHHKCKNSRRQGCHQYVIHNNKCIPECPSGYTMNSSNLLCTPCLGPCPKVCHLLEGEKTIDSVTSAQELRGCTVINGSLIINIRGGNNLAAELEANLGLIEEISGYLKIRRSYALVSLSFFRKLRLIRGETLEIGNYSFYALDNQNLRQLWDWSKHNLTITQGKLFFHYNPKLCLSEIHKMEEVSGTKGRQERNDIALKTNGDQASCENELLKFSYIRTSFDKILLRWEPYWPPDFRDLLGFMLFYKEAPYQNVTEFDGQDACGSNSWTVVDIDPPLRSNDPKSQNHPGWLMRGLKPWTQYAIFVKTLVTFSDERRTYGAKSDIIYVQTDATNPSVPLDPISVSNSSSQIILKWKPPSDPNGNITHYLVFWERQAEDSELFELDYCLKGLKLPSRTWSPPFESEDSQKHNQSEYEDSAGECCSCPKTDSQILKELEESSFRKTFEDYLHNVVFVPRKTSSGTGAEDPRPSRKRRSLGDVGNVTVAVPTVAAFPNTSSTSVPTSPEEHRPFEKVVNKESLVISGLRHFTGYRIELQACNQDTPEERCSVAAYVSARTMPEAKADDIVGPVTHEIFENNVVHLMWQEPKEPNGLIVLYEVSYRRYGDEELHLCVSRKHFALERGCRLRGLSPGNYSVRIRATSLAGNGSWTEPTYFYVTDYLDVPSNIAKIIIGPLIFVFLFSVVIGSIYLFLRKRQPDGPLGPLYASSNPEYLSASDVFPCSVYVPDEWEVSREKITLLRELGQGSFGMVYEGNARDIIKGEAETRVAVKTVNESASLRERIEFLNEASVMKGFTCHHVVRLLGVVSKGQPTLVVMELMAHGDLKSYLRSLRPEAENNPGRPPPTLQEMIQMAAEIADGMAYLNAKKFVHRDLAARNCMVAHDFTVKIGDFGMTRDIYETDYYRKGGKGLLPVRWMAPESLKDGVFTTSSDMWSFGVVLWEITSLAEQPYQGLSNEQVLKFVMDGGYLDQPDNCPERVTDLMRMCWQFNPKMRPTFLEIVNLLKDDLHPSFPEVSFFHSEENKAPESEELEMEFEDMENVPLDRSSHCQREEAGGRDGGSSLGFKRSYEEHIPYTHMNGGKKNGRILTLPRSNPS
Method: as §3, §4

Sequence of Trk A (P04629 33-796): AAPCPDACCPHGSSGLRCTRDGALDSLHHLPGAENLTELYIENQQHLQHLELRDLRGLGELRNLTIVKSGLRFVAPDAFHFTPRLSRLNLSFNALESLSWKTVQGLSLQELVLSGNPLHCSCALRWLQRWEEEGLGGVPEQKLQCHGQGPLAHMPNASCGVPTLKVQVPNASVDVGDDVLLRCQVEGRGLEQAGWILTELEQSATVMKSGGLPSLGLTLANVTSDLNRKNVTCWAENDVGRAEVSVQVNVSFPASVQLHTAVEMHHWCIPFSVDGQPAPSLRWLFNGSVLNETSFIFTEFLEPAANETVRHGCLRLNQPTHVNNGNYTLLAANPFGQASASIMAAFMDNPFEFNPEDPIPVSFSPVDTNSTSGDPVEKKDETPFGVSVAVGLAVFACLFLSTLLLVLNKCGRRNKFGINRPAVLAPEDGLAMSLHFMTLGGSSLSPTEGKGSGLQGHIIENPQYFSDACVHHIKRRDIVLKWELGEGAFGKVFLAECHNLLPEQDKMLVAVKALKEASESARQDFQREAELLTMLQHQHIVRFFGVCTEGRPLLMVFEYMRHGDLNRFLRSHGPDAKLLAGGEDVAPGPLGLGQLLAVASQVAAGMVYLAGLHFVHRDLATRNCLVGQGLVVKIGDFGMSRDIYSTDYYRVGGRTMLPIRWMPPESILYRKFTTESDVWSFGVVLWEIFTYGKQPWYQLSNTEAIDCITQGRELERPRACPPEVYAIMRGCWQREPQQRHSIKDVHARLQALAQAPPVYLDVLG

Row | Structure (SMILES) | IC50 (Trk A) [nM] | IC50 (Trk B) [nM] | IC50 (Trk C) [nM] | inhibition at 1 µM (activated IGF-1R) [%] | inhibition at 3 µM (activated IGF-1R) [%] | inhibition at 10 µM (activated IGF-1R) [%] | inhibition at 30 µM (activated IGF-1R) [%] | inhibition at 1 µM (activated IR) [%] | inhibition at 3 µM (activated IR) [%] | inhibition at 30 µM (activated IR) [%]
1 | O=C([C@H]1CCCN1c1nc2c(c(Nc3cc(C4CCCC4)[nH]n3)n1)CCC2)N1CC(F)(F)C(F)(F)C1 [110a, (R)-(1-(4-((5-cyclopentyl-1H-pyrazol-3-yl)amino)-6,7-dihydro-5H-cyclopenta[d]pyrimidin-2-yl)pyrrolidin-2-yl)(3,3,4,4-tetrafluoropyrrolidin-1-yl)methanone] | 189 | 171 | 80.4 | 31 | 61 | 83 | 96 | 32 | 64 | 97
2 | CN1CCN(C(=O)[C@@H]2CCCN2c2nc3c(c(Nc4cc(C5CCCC5)[nH]n4)n2)CCC3)CC1 [134b, (S)-(1-(4-(5-cyclopentyl-1H-pyrazol-3-ylamino)-6,7-dihydro-5H-cyclopenta[d]pyrimidin-2-yl)pyrrolidin-2-yl)(4-methylpiperazin-1-yl)methanone] | 337 | 31 | 4.8 | 16 | 26 | 55 | 77 | 26 | 36 | 85
3 | CN1CCN(C(=O)[C@H]2CCCN2c2nc3c(c(Nc4cc(C5CCCC5)n[nH]4)n2)CCC3)CC1=O [136a, 4-[(2R)-1-[4-[(3-cyclopentyl-1H-pyrazol-5-yl)amino]-6,7-dihydro-5H-cyclopenta[d]pyrimidin-2-yl]pyrrolidine-2-carbonyl]-1-methyl-piperazin-2-one] | 237 | 113 | 83 | 72 | – | – | – | 64 | – | –
4 | CN1CCN(C(=O)[C@@H]2CCCN2c2nc3c(c(Nc4cc(C5CCCC5)n[nH]4)n2)CCC3)CC1=O [136b, 4-[(2S)-1-[4-[(3-cyclopentyl-1H-pyrazol-5-yl)amino]-6,7-dihydro-5H-cyclopenta[d]pyrimidin-2-yl]pyrrolidine-2-carbonyl]-1-methyl-piperazin-2-one] | 1730 | 106 | 42.4 | 15 | 12 | 28 | 63 | -2 | 21 | 72
5 | CC(=O)N1CCN(C(=O)[C@@H]2CCCN2c2nc3c(c(Nc4cc(C5CCCC5)n[nH]4)n2)CCC3)CC1 [137b, 1-[4-[(2S)-1-[4-[(3-cyclopentyl-1H-pyrazol-5-yl)amino]-6,7-dihydro-5H-cyclopenta[d]pyrimidin-2-yl]pyrrolidine-2-carbonyl]piperazin-1-yl]ethanone] | 1910 | 265 | 110 | 10 | -1 | 15 | 43 | 19 | 9 | 60
6 | CC(C)c1cc(Nc2nc(N3CCC[C@@H]3C(=O)N3CCCC3)nc3c2CCC3)n[nH]1 [138a, (R)-(1-(4-((5-isopropyl-1H-pyrazol-3-yl)amino)-6,7-dihydro-5H-cyclopenta[d]pyrimidin-2-yl)pyrrolidin-2-yl)(pyrrolidin-1-yl)methanone] | 878 | 246 | 105 | – | 62 | 83 | 95 | 37 | 61 | 96

These reach a lower IC50 (Trk A). Values come first.

Row | IC50 (Trk A) [nM] | IC50 (Trk B) [nM] | IC50 (Trk C) [nM] | inhibition at 1 µM (activated IGF-1R) [%] | inhibition at 3 µM (activated IGF-1R) [%] | inhibition at 10 µM (activated IGF-1R) [%] | inhibition at 30 µM (activated IGF-1R) [%] | inhibition at 1 µM (activated IR) [%] | inhibition at 3 µM (activated IR) [%] | inhibition at 30 µM (activated IR) [%] | Structure (SMILES)
7 | 141 | 5 | 1.4 | – | 57 | 80 | 94 | 21 | 46 | 92 | CC(C)c1cc(Nc2nc(N3CCC[C@H]3C(=O)N3CCCC3)nc3c2CCC3)n[nH]1 [138b, (S)-(1-(4-((5-isopropyl-1H-pyrazol-3-yl)amino)-6,7-dihydro-5H-cyclopenta[d]pyrimidin-2-yl)pyrrolidin-2-yl)(pyrrolidin-1-yl)methanone]
8 | 135 | 231 | 146 | 27 | 47 | 74 | 96 | 17 | 47 | 97 | CC1(C)CCN(C(=O)[C@H]2CCCN2c2nc3c(c(Nc4cc(C5CCCC5)n[nH]4)n2)CCC3)CC1 [141a, (R)-(1-(4-((5-cyclopentyl-1H-pyrazol-3-yl)amino)-6,7-dihydro-5H-cyclopenta[d]pyrimidin-2-yl)pyrrolidin-2-yl)(4,4-dimethylpiperidin-1-yl)methanone]
9 | 109 | 4 | 1.3 | – | 36 | 65 | 86 | 12 | 36 | 89 | CC(C)c1cc(Nc2nc(N3CCC[C@H]3C(=O)N3CC(F)(F)C(F)(F)C3)nc3c2CCC3)n[nH]1 [112b, (S)-(1-(4-(5-isopropyl-1H-pyrazol-3-ylamino)-6,7-dihydro-5H-cyclopenta[d]pyrimidin-2-yl)pyrrolidin-2-yl)(3,3,4,4-tetrafluoropyrrolidin-1-yl)methanone]
10 | 41 | 2 | 0.8 | 1 | 18 | 34 | 68 | 3 | 21 | 74 | O=C([C@@H]1CCCN1c1nc2c(c(Nc3cc(C4CCCC4)[nH]n3)n1)CCC2)N1CC(F)(F)C(F)(F)C1 [110b, (S)-(1-(4-(5-cyclopentyl-1H-pyrazol-3-ylamino)-6,7-dihydro-5H-cyclopenta[d]pyrimidin-2-yl)pyrrolidin-2-yl)(3,3,4,4-tetrafluoropyrrolidin-1-yl)methanone]
11 | 32 | 90 | 44.4 | 73 | – | – | – | 80 | – | – | CN1CCN(C(=O)[C@H]2CCCN2c2nc3c(c(Nc4cc(C5CCCC5)[nH]n4)n2)CCC3)CC1 [134a, (R)-(1-(4-(5-cyclopentyl-1H-pyrazol-3-ylamino)-6,7-dihydro-5H-cyclopenta[d]pyrimidin-2-yl)pyrrolidin-2-yl)(4-methylpiperazin-1-yl)methanone]
12 | 12 | 1 | 2.5 | 12 | 14 | 43 | 82 | 11 | 26 | 88 | CC1(C)CCN(C(=O)[C@@H]2CCCN2c2nc3c(c(Nc4cc(C5CCCC5)n[nH]4)n2)CCC3)CC1 [135b, [(2S)-1-[4-[(3-cyclopentyl-1H-pyrazol-5-yl)amino]-6,7-dihydro-5H-cyclopenta[d]pyrimidin-2-yl]pyrrolidin-2-yl]-(4,4-dimethyl-1-piperidyl)methanone]
13 | 0.515 | 0.038 | 0.243 | 95 | – | – | – | 97 | – | – | O=C(Nc1nccs1)[C@@H]1CCCN1c1nc2c(c(Nc3cc(C4CCCC4)[nH]n3)n1)CCC2 [133b, (S)-1-(4-(5-cyclopentyl-1H-pyrazol-3-ylamino)-6,7-dihydro-5H-cyclopenta[d]pyrimidin-2-yl)-N-(thiazol-2-yl)pyrrolidine-2-carboxamide]
